Key:
Type in all cases: cell-based, human
[1] = test system: tumour infiltrating lymphocytes (TIL); assay: [Cr51]-release assay: lysis of autologous tumour cells by pre-treated TIL
Procedure: Melanoma patient derived TIL and CD19 directed CAR T cells were generated as previously described (Magalhaes et al., 2018; Lövgren et al., 2020).
(§1) Lymphocytes were pre-treated for 18 h with Auranofin (AUF, with the concentration 1 μg/mL for NK cells and 0.5 μg/mL for TIL, if not indicated differently), DL-Sulforaphane (SUL) or Dimethyl Fumarate (DMF) (all Sigma-Aldrich) at indicated concentrations.
(§2) For Nrf2 inhibition, NK cells were treated with 50 μM ML-385 (Sigma-Aldrich) in parallel. For H2O2 treatment, lymphocyte cells were washed and resuspended to 1×10^6 cells/mL in medium and exposed to indicated H2O2 (Sigma-Aldrich) concentration for 1 h at 37° C. Cells were washed with medium and then used for further experiments. For monocyte experiments, autologous NK cell-monocytes or TIL-monocytes were used. NK cells/TIL were isolated and pre-treated with 0.5 μg/mL AUF, as described above, and co-cultured with unstimulated at the ratio, 1:2 M:NK, or stimulated monocytes at the ratio, 1:1 M:NK, if not indicated otherwise. Stimulated monocytes were activated with 100 ng/ml PMA for 1 min, washed and added at indicated ratio, the number of NK cell/TIL was kept constant. As control, H2O2 was used at indicated concentration. Cells were co-cultured for 2 h and then effector cells were stained for intracellular ROS (see flow cytometry) or used as effector cells in Cr^51 release assay (E:T ratio 10:1).
(§3) For cytotoxic assay, a standard 4 h [Cr^51]-release assay was used. Briefly, tumour cells were harvested and labeled with 51Cr (PerkinElmer) and used as target cells. Effector cells, NK cells and T cells, were co-cultured in 96-well V-bottom plate with indicated tumour cells at the stated effector target ratio (E:T). The supernatant was collected onto LUMA plates (Perkin-Elmer) and radioactivity/tumour cell lysis was detected by MicroBeta2 (Perkin Elmer). Target cell killing measured by % specific lysis and calculated using the formula: ((experimental release-spontaneous release)/(maximum release-spontaneous release))*100.

ANRU TIL [2] = assay: Viability of pre-treated ANRU TIL after H2O2 exposure (flow cytometry); conditions: 24 h co-culture with ANRU tumour cells, alive CD3+ T cells
Procedure: as §1
as §2, with “Cells were co-cultured for 2 h and then effector cells were stained for intracellular ROS (see flow cytometry) or used as effector cells in Cr^51 release assay (E:T ratio 10:1).” left out
All antibodies (see Table 1) and FACS reagents were used according to manufactures recommendation, if not stated otherwise. […] Samples were fixed with 2% PFA (Thermo scientific) for 15 min before acquired on a NovoCyte (ACEA Biosciences) and analysed using FlowJo Software (TreeStar).

[3] = test system: Nrf2 target genes (NQO1, HMOX1, TXNRD1, Keap1); assay: qPCR of classical Nrf2 target genes in NK cells
Procedure: Lymphocytes were pre-treated with AUF, SUL or DMF as described above. RNA was isolated using TRIzol™ Plus RNA Purification Kit (Invitrogen). cDNA was generated using the iScript™ cDNA Synthesis Kit (Bio-Rad) and qPCR was done using iTaq™ Universal SYBR® Green Supermix (Bio-Rad) in the CFX96 Touch Real-Time PCR Detection System (Bio-Rad). Fold change expression from untreated cells was calculated using the 2^-ΔΔCt formula with b-actin as reference gene. Evaluated genes were NAD(P)H Quinone Dehydrogenase 1 (NQO1), Kelch Like ECH Associated Protein 1 (Keap1), Heme Oxygenase 1 (HMOX1) and Thioredoxin Reductase 1 (TXNRD1).

CD8+ T cells = assay: IFNγ release by expanded healthy donor CD8+ T cells by pre-treatment time
NK cells [4] = assay: Intracellular ROS levels in NK cells (CellROX, flow cytometry)
Procedure: as §2
For detection of intracellular ROS levels, for NK cells CellROX™ Deep Red Reagent (Invitrogen) were used. Briefly, NK cells were stained with 2.5 μM CellROX solution in RPMI for 30 min at 37° C. and then stained for flow cytometry with anti-CD56 and anti-CD3 (both Biolegend).

NK cells [5] = assay: ADCC: NK cells with RAJI cells coated with Rituximab or Ofatumumab
Procedure: Lymphocytes were isolated and pre-treated when indicated, with compound and H2O2, as described above. For degranulation/measuring CD107a expression, NK cells were co-cultured with K562 tumour cells at an effector target ratio 1:1 in the presence of anti-CD107a in U-bottom plates. After 2 h, GolgiStop™ and GolgiPlug™ (BD Bioscience) were added and cells were harvested after an additional 4 h co-culture and stained for CD56 and CD3, as described above. For positive control, 25 ng/ml PMA (Sigma Aldrich) and 500 ng/mL Ionomycin (Sigma Aldrich) were added.
as §3
For analyzing ADCC, NK cells were cultured with RAJI cells and Rituximab (0.5 μg/mL, MabThera, Roche) or Ofatumumab (0.05 μg/mL, Arzerra, Novartis).

ANRU TIL [6] = assay: TIL infiltration into ANRU spheroids (flow cytometry, confocal microscopy); conditions: 48 h co-culture
Source text: To study TIL infiltration into spheroids, eight spheroids of each condition were pooled and carefully washed twice with PBS, dissociated with trypsin and then stained with anti-CD3, CD4 and anti-CD8. The supernatant was collected to measure the non-infiltrated fraction.
For confocal microscopy, spheroids were fixed with 4% PFA (Thermo Scientific). Spheroids stained with anti-CD8a followed by the secondary antibody (goat-anti-mouse IgG-AF647, Biolegend) and Hoechst 33342 dye (Invitrogen). Spheroids were cleared with 88% glycerol (Sigma) overnight, transferred to 8-well u-slides (Ibidi) and imaged with the Zeiss LSM800 confocal microscope. Spheroids were also analyzed for T cell infiltration using flow cytometry, see above.

ANRU TIL [7] = assay: ANRU TIL exposed to activated autologous monocytes: spheroid caspase activation and IFNγ release; conditions: for Caspase activity in spheroids co-cultured with TIL exposed to activated autologous monocytes: highest dose of AUF, vs untreated control TIL
Procedure: as §2
For cytokine release assay, NK cells and TIL were cultured with indicated tumour cells at the effector target ratio 4:1 (E:T) for 24 h in U-bottom plates. IFNγ secretion was measured using human IFN-γ ELISA development kit (Mabtech) following the manufacturer's instructions.
5000 ANRU tumour cells were seeded per well in Ultra-Low Attachment 96-well plates (Corning Costar) in culture medium containing 2% Matrigel (Corning) for 3 days. 1×10^4AUF pre-treated TIL (see above), and spheroids were co-cultured and monitored for 48 h with the IncuCyte live cell imaging system (Essen Bioscience) in the presence of CellEvent™ Caspase 3/7 Green detection agent (Invitrogen).

[8] = upon addition of H2O2, vs control NK cells

## CC(=O)OC[C@H]1O[C@@H]([S-])[C@H](OC(C)=O)[C@@H](OC(C)=O)[C@@H]1OC(C)=O.CCP(CC)CC.[Au+] [AUF, Auranofin]
[1]; 0-72 h after AUF removal, H2O2
  Lysis of autologous tumour cells by TIL after AUF removal: increased lysis of autologous tumour cells
[1]; KADA, also in the absence of ROS
  Specific lysis of autologous tumour cells by TIL: clearly higher
[1]; highest AUF concentration
  Time after AUF withdrawal until which increased lysis by TIL lasted: 72 h
ANRU TIL [2]
  Viability of ANRU TIL after exposure to H2O2: improved viability
[3]
  Time of HMOX1 expression peak in NK cells: 6 h
[3]; already at 1 h
  HMOX1 expression in NK cells (fold change vs untreated): pronounced upregulation
[3]; kinetic
  Expression of the other Nrf2 target genes in NK cells (fold change vs untreated): more gradually increased over time
CD8+ T cells
  Pre-treatment time after which a protective effect was observed in T cells: 8 to 12 h
NK cells [4]; 72 h after AUF removal
  Intracellular fluorescence of the ROS indicator in NK cells vs controls: no differences
NK cells [4]; H2O2 challenge 0-48 h after AUF removal
  Intracellular fluorescence of the ROS indicator in NK cells: significantly lower intracellular fluorescence of the ROS indicator
NK cells [4]; up to 72 h after compound removal
  Intracellular ROS levels in NK cells and TIL after H2O2 treatment: decreased intracellular ROS levels
NK cells [4]; without addition of H2O2
  Intracellular ROS levels in NK cells: significantly reduced intracellular ROS levels
NK cells [5]; [8]
  Ability of NK cells to degranulate in response to anti-CD20 coated RAJI cells: significant increase
  Ability of NK cells to lyse anti-CD20 coated RAJI cells: significant increase
NK cells [5]; without the presence of ROS
  Capacity of NK cells to recognize anti-CD20 coated RAJI cells: increased capacity to recognize the anti-CD20 coated RAJI cells
ANRU TIL [6]
  Capacity of TIL to infiltrate the spheroid: no difference
ANRU TIL [7]; 2D grown ANRU tumour cells
  Cytokine release (IFNγ) by TIL impaired by monocyte derived ROS: partially be rescued
ANRU TIL [7]
  Caspase activity in spheroids co-cultured with TIL exposed to activated autologous monocytes: increased caspase activity
ANRU TIL [7]; listed as auranofin
  Caspase activity in spheroids co-cultured with TIL exposed to activated autologous monocytes: increased elimination of spheroid grown tumour cells

Reference: US20240277767A1, “METHODS AND USES” (PROLEUKOCYTE AB, priority 2021, published 2024)
